Patent US10894797B2, “Fused tricyclic ring derivatives as SRC homology-2 phosphatase inhibitors” (Nikang Therapuetics, Inc., priority 2018, dated 2021)

What follows are molecules tested against SHP2 (Homo sapiens (Human), UniProt Q06124) (assay: SHP2 allosteric inhibition assay (DiFMUP substrate, bisphos-IRS1 peptide activation)). Conditions: 0.33 nM SHP2, 0.5 μM bisphos-IRS1 peptide, 100 uM DiFMUP, room temperature.
Type: biochemical
Description: At the basal state, SHP2 is auto-inhibited and access of substrates to the catalytic site is blocked by the […] interactions between the SH2 domains and the PTP domain. When bis-tyrosyl-phosphorylated peptides bind to SH2 domain of SHP2, the PTP domain becomes available for substrate recognition and reaction catalysis and SHP2 is allosterically activated. SHP2 catalytic activity can be measured using a fluorogenic artificial substrate DiFMUP.
The phosphatase reactions were carried out at room temperature in 384-well black polystyrene plates (Greiner Bio-One, Cat #784076) using assay buffers containing 60 mM HEPES, pH 7.2, 75 mM NaCl, 75 mM KCl, 1 mM EDTA, 0.05% P-20, and 5 mM DTT.
0.33 nM of SHP2 was co-incubated with of 0.5 μM of bisphos-IRS 1 peptide (sequence: H2N-LN(pY)IDLDLV(dPEG8)LST(pY)ASINFQK-amide) and various concentrations of compounds for 30-60 min at room temperature. Then the reaction was initiated by addition of the surrogate substrate DiFMUP (Invitrogen, Cat #D6567, 100 uM final).
The real-time conversion of DiFMUP to DiFMU (6,8-difluoro-7-hydroxyl-4-methyl-coumarin) was measured every 5 min for 30 min using a microplate reader (CLARIOstar, BMG Labtech) with excitation and emission wavelengths of 340 nm and 450 nm, respectively. Initial reaction rates were determined by linear fitting of the data and the inhibitor dose response curves were analyzed using normalized IC50 regression curve fitting with control-based normalization.

SHP2, sequence (Q06124 whole entry): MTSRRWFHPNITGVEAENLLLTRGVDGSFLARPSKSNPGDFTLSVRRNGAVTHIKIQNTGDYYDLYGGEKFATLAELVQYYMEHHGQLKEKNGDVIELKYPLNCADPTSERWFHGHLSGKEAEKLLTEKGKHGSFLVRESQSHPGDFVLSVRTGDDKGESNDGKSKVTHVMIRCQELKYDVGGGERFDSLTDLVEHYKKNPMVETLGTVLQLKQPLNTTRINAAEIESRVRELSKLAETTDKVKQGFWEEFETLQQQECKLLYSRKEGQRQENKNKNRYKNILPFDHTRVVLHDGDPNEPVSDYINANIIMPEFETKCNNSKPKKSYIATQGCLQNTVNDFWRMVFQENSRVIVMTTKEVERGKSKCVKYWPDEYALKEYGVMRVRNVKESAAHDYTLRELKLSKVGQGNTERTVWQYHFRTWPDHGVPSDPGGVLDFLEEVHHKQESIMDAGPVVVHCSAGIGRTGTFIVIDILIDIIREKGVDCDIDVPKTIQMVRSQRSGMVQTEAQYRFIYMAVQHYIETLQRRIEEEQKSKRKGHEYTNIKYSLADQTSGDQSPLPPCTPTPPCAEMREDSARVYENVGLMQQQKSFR

| SMILES | IC50 [nM] | Shp2 IC50(nM) |
| --- | --- | --- |
| C[C@@H]1OCC2(CCN(c3ncc(Sc4ccnc5c4OC[C@@H]4C[C@H](OC(N)=O)CN54)nc3CO)CC2)[C@@H]1N [Compound 22, (6aS,8S)-4-((5-((3S,4S)-4-amino-3-methyl-2-oxa-8-azaspiro[4.5]decan-8-yl)-6-(hydroxymethyl)pyrazin-2-yl)thio)-6a,7,8,9-tetrahydro-6H-pyrido[3,2-b]pyrrolo[1,2-d]-[1,4]oxazin-8-yl carbamate] | 6 | – |
| C[C@@H]1OCC2(CCN(c3ncc(Sc4ccnc5c4OC[C@@H]4C[C@@H](OC(N)=O)CN54)nc3CO)CC2)[C@@H]1N [Compound 23, (6aS,8R)-4-((5-((3 S,4S)-4-amino-3-methyl-2-oxa-8-azaspiro[4.5]decan-8-yl)-6-(hydroxymethyl)pyrazin-2-yl)thio)-6a,7,8,9-tetrahydro-6H-pyrido[3,2-b]pyrrolo[1,2-d][1,4]oxazin-8-yl Carbamate] | 8 | – |
| C[C@@H]1OCC2(CCN(c3ncc(Sc4ccnc5c4OC[C@@H]4C[C@H](n6cccn6)CN54)nc3CO)CC2)[C@@H]1N [Compound 24, (6-(((6aS,8S)-8-(1H-pyrazol-1-yl)-6a,7,8,9-tetrahydro-6H-pyrido[3,2-b]-pyrrolo[1,2-d][1,4]oxazin-4-yl)thio)-3-((3 S,4S)-4-amino-3-methyl-2-oxa-8-azaspiro[4.5]decan-8-yl)pyrazin-2-yl)methanol] | 10 | – |
| C[C@@H]1OCC2(CCN(c3ncc(Sc4ccnc5c4OC[C@@H]4C[C@@H](n6cccn6)CN54)nc3CO)CC2)[C@@H]1N [Compound 25, (6-(((6aS,8R)-8-(1H-pyrazol-1-yl)-6a,7,8,9-tetrahydro-6H-pyrido[3,2-b]-pyrrolo[1,2-d][1,4]oxazin-4-yl)thio)-3-((3 S,4S)-4-amino-3-methyl-2-oxa-8-azaspiro[4.5]decan-8-yl)pyrazin-2-yl)methanol] | 11 | – |
| C[C@@H]1OCC2(CCN(c3ncc(Sc4ccnc5c4OC[C@H]4COCCN54)nc3CO)CC2)[C@@H]1N [Compound 26, (3-((3S,4S)-4-amino-3-methyl-2-oxa-8-azaspiro[4.5]decan-8-yl)-6-(((R)-6a,7,9,10-tetrahydro-6H-[1,4]oxazino[4,3-d]pyrido[3,2-b][1,4]oxazin-4-yl)thio)pyrazin-2-yl)methanol] | – | one of 26 and 27 is 10 and the other is 8 |
| C[C@@H]1OCC2(CCN(c3ncc(Sc4ccnc5c4OC[C@@H]4COCCN54)nc3CO)CC2)[C@@H]1N [Compound 27, (3-((3S,4S)-4-amino-3-methyl-2-oxa-8-azaspiro[4.5]decan-8-yl)-6-(((S)-6a,7,9,10-tetrahydro-6H-[1,4]oxazino[4,3-d]pyrido[3,2-b][1,4]oxazin-4-yl)thio)pyrazin-2-yl)methanol] | – | one of 26 and 27 is 10 and the other is 8 |
| C[C@@H]1OCC2(CCN(c3ncc(Sc4ccnc5c4OCC4CS(=O)(=O)CCN54)nc3CO)CC2)[C@@H]1N (stereo partly drawn) [Compound 28, 4-((5-((3S,4S)-4-amino-3-methyl-2-oxa-8-azaspiro[4.5]decan-8-yl)-6-(hydroxymethyl)pyrazin-2-yl)thio)-6a,7,9,10-tetrahydro-6H-pyrido[3,2-b][1,4]thiazino[4,3-d][1,4]oxazine 8,8-dioxide] | 13 | – |
| COC[C@H]1C[C@H]2COc3c(Sc4cnc(N5CCC6(CC5)CO[C@@H](C)[C@H]6N)c(CO)n4)ccnc3N2C1 [Compound 29, (3-((3S,4S)-4-amino-3-methyl-2-oxa-8-azaspiro[4.5]decan-8-yl)-6-(((6aS,8S)-8-(methoxymethyl)-6a,7,8,9-tetrahydro-6H-pyrido[3,2-b]pyrrolo[1,2-d][1,4]oxazin-4-yl)thio)pyrazin-2-yl)methanol] | 3.6 | – |
| COC[C@@H]1C[C@H]2COc3c(Sc4cnc(N5CCC6(CC5)CO[C@@H](C)[C@H]6N)c(CO)n4)ccnc3N2C1 [Compound 30, (3-((3S,4S)-4-amino-3-methyl-2-oxa-8-azaspiro[4.5]decan-8-yl)-6-(((6aS,8R)-8-(methoxymethyl)-6a,7,8,9-tetrahydro-6H-pyrido[3,2-b]pyrrolo[1,2-d][1,4]oxazin-4-yl)thio)pyrazin-2-yl)methanol] | 3.8 | – |
| COCOC[C@H]1C[C@H]2COc3c(Sc4cnc(N5CCC6(CC5)CO[C@@H](C)[C@H]6N)c(CO)n4)ccnc3N2C1 [Compound 31, (3-((3S,4S)-4-amino-3-methyl-2-oxa-8-azaspiro[4.5]decan-8-yl)-6-(((6aS,8S)-8-((methoxymethoxy)methyl)-6a,7,8,9-tetrahydro-6H-pyrido[3,2-b]pyrrolo[1,2-d][1,4]oxazin-4-yl)thio)pyrazin-2-yl)methanol] | 4.2 | – |
| COCCOC[C@H]1C[C@H]2COc3c(Sc4cnc(N5CCC6(CC5)CO[C@@H](C)[C@H]6N)c(CO)n4)ccnc3N2C1 [Compound 32, (3-((3S,4S)-4-amino-3-methyl-2-oxa-8-azaspiro[4.5]decan-8-yl)-6-(((6aS,8S)-8-((2-methoxyethoxy)methyl)-6a,7,8,9-tetrahydro-6H-pyrido[3,2-b]pyrrolo[1,2-d][1,4]oxazin-4-yl)thio)pyrazin-2-yl)methanol] | 4 | – |
| C[C@@H]1OCC2(CCN(c3ncc(Sc4ccnc5c4OC[C@@H]4C[C@H](COCC6CC6)CN54)nc3CO)CC2)[C@@H]1N [Compound 33, (3-((3S,4S)-4-amino-3-methyl-2-oxa-8-azaspiro[4.5]decan-8-yl)-6-(((6aS,8S)-8-((cyclopropylmethoxy)methyl)-6a,7,8,9-tetrahydro-6H-pyrido[3,2-b]pyrrolo[1,2-d][1,4]oxazin-4-yl)thio)pyrazin-2-yl)methanol] | 2.3 | – |
| C[C@@H]1OCC2(CCN(c3ncc(Sc4ccnc5c4OC[C@@H]4C[C@H](COCC6COC6)CN54)nc3CO)CC2)[C@@H]1N [Compound 34, (3-((3S,4S)-4-amino-3-methyl-2-oxa-8-azaspiro[4.5]decan-8-yl)-6-(((6aS,8S)-8-((oxetan-3-ylmethoxy)methyl)-6a,7,8,9-tetrahydro-6H-pyrido[3,2-b]pyrrolo[1,2-d][1,4]oxazin-4-yl)thio)pyrazin-2-yl)methanol] | 6.2 | – |
| C[C@@H]1OCC2(CCN(c3ncc(Sc4cc(N)nc5c4OC[C@@H]4CCCN54)nc3CO)CC2)[C@@H]1N [Compound 35, formic acid; (3-((3S,4S)-4-amino-3-methyl-2-oxa-8-azaspiro[4.5]decan-8-yl)-6-(((S)-2-amino-6a,7,8,9-tetrahydro-6H-pyrido[3,2-b]pyrrolo[1,2-d][1,4]oxazin-4-yl)thio)pyrazin-2-yl)methanol] | 18 | – |
| COC[C@H]1C[C@H]2COc3c(Sc4cnc(N5CCC6(CC5)Cc5ncccc5[C@H]6N)c(CO)n4)ccnc3N2C1 [Compound 36, (3-((S)-5-amino-5,7-dihydrospiro[cyclopenta[b]pyridine-6,4′-piperidin]-1′-yl)-6-(((6aS,8S)-8-(methoxymethyl)-6a,7,8,9-tetrahydro-6H-pyrido[3,2-b]pyrrolo[1,2-d][1,4]oxazin-4-yl)thio)pyrazin-2-yl)methanol] | – | One of 36 and 37 is 2.7 and the other is 4.2 |
| COC[C@@H]1C[C@H]2COc3c(Sc4cnc(N5CCC6(CC5)Cc5ncccc5[C@H]6N)c(CO)n4)ccnc3N2C1 [Compound 37, (3-((S)-5-amino-5,7-dihydrospiro[cyclopenta[b]pyridine-6,4′-piperidin]-1′-yl)-6-(((6aS,8R)-8-(methoxymethyl)-6a,7,8,9-tetrahydro-6H-pyrido[3,2-b]pyrrolo[1,2-d][1,4]oxazin-4-yl)thio)pyrazin-2-yl)methanol] | – | One of 36 and 37 is 2.7 and the other is 4.2 |
| COC[C@H]1C[C@H]2COc3c(Sc4cnc(N5CCC6(CC5)COC5(CCC5)[C@H]6N)c(CO)n4)ccnc3N2C1 [Compound 38, (3-((S)-5-amino-13-oxa-9-azadispiro[3.1.5^6.2^4]tridecan-9-yl)-6-(((6aS,8S)-8-(methoxymethyl)-6a,7,8,9-tetrahydro-6H-pyrido[3,2-b]pyrrolo[1,2-d][1,4]oxazin-4-yl)thio)pyrazin-2-yl)methanol] | 5.7 | – |
| COCOC[C@H]1C[C@H]2COc3c(Sc4cnc(N5CCC6(CC5)COC5(CCC5)[C@H]6N)c(CO)n4)ccnc3N2C1 [Compound 39, (3-((S)-5-amino-13-oxa-9-azadispiro[3.1.5^6.2^4]tridecan-9-yl)-6-(((6aS,8S)-8-((methoxymethoxy)methyl)-6a,7,8,9-tetrahydro-6H-pyrido[3,2-b]pyrrolo[1,2-d][1,4]oxazin-4-yl)thio)pyrazin-2-yl)methanol] | 7 | – |
| COCOCOC[C@H]1C[C@H]2COc3c(Sc4cnc(N5CCC6(CC5)CO[C@@H](C)[C@H]6N)c(CO)n4)ccnc3N2C1 [Compound 40, (3-((3 S,4S)-4-Amino-3-methyl-2-oxa-8-azaspiro[4.5]decan-8-yl)-6-(((6aS,8S)-8-(((methoxymethoxy)methoxy)methyl)-6a,7,8,9-tetrahydro-6H-pyrido[3,2-b]pyrrolo[1,2-d][1,4]oxazin-4-yl)thio)pyrazin-2-yl)methanol] | 5.9 | – |
| C[C@@H]1OCC2(CCN(c3ncc(Sc4ccnc5c4OC[C@@H]4C[C@H](CO)CN54)nc3CO)CC2)[C@@H]1N [Compound 41, (3-((3S,4S)-4-amino-3-methyl-2-oxa-8-azaspiro[4.5]decan-8-yl)-6-(((6aS,8S)-8-(hydroxymethyl)-6a,7,8,9-tetrahydro-6H-pyrido[3,2-b]pyrrolo[1,2-d][1,4]oxazin-4-yl)thio)pyrazin-2-yl)methanol] | 5 | – |
